Patent US9290511B2, “Thieno-pyrimidines, useful as potassium channel inhibitors” (XENTION LIMITED, priority 2011, dated 2016)

Target: T1, Kir3.1/3.4 (Rattus norvegicus, UniProt P48548+P63251)
T1 construct: expressed in transfected cells
T1 sequence (P63251 1-501): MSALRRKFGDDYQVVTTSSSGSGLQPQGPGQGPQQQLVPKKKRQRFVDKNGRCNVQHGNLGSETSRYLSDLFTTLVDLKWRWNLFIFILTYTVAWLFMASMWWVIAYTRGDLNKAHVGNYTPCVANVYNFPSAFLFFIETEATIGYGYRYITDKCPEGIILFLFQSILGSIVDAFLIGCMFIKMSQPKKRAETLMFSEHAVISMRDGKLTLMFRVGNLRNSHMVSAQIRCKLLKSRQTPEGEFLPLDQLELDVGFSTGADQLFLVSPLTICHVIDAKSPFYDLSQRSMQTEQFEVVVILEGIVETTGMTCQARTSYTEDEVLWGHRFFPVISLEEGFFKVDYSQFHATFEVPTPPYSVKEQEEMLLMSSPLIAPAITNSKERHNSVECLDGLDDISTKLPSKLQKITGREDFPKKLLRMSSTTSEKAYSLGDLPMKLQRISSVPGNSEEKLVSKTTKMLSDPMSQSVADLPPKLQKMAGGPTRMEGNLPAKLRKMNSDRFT
T1 sequence (P48548 1-419): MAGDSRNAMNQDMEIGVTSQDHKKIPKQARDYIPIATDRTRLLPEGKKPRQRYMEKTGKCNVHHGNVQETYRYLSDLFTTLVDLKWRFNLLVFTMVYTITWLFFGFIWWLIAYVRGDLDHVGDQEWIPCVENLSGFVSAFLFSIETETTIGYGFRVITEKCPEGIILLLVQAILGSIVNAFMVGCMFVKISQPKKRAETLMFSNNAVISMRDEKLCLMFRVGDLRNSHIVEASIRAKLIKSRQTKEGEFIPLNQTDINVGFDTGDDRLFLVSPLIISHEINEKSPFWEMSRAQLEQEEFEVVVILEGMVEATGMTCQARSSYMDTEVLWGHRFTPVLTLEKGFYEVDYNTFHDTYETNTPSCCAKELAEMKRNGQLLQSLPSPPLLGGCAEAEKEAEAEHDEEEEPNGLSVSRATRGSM
Test: Kir3.1/3.4 Electrophysiology Method (manual whole-cell patch clamp)
Type: cell-based
Details: Electrophysiology Method (TABLE 1)
Description: Compound activity against the recombinant G-protein activated inward rectifier current encoded by the heterotetramer Kir3.1/3.4 was assessed using manual whole-cell patch technique. The heterotetramer forms the pore-forming channel that conducts the acetylcholine/adenosine-activated potassium current in the heart.
For whole-cell patch-clamp studies, cells (Human Embryonic Kidney 293 stably transfected with rat Kir3.1/3.4) were seeded onto glass coverslips before recordings were made. Cells were seeded in sterile 30 mm Petri dishes at a density to enable isolated cells to be selected for patch clamp experiments. The dishes were stored in a humidified, gassed (5% CO2) incubator at 37° C. until use.
Whole-cell patch-clamp recordings of membrane currents were made following gigaohm seal formation between the patch electrode and the cell using HEKA EPC-9/10 amplifiers controlled by Pulse Software (Ver8.5x/8.6×/8.7×, HEKA, Germany). Coverslips seeded with cells were placed in a recording chamber mounted on the stage of an inverted microscope. During the experiment, the cell of interest was continuously superfused with bather solution delivered via a cannula placed in close proximity to the cell to enable control of the extracellular solution environment. Only those cells with a current <−500 pA (current at −140 mV) were used for experiments. During experiments, series resistance was compensated by a minimum of 70%.
Electrophysiology voltage-step protocols and analysis of data were performed as follows. Data was sampled at 5 kHz, and filtered with a −3 dB bandwidth of 2.5 kHz. Cells were held at a voltage of −60 mV. Currents were evoked by a depolarising voltage step to +60 mV (100 ms) before a ramp-repolarisation (0.4 V·s^−1) to −140 mV (100 ms) before returning to −60 mV. The command waveform was repeatedly applied every 10 s throughout the experiment. Mean currents during 1-99% of the time at −140 mV were analysed using Pulsefit software (v8.x, HEKA, Germany). The voltage protocol was repeatedly applied to achieve a stable current baseline in bather before the test substance was superfused via the cannula in close proximity to the cell under investigation. The test substance was allowed to equilibrate during which time voltage protocol was repeatedly applied and recorded. On reaching steady-state inhibition, the cell was superfused with an identical bather solution containing zero external potassium chloride (replaced by equimolar NaCl). The identical current measurement was made in the absence of potassium to assess the passive leak at −140 mV. The leak current was subtracted from the control and steady-state drug current values. The percentage inhibition of the leak-subtracted current in the presence of test substance was calculated relative to the control leak-subtracted pre-drug value. Internal patch-pipette solution contained in mM: 110 KCl, 20 NaCl, 0.9 GTPγS, 5 Mg-ATP, 5 EGTA, 10 HEPES, pH7.2 corrected with KOH. The external superfusate composition in mM was: 150 (or 160) NaCl, 10 (or 0) KCl, 3 CaCl2, 1 MgCl, 10 HEPES, pH 7.4 corrected with NaOH.

For `O=C1CN(c2nc(N3CCC(CNC4CCC4)CC3)c3c(-c4ccccc4)csc3n2)CCN1` [Example 125], which IC50 is on record?
Its IC50 is 500 to 3000 nM.

For `c1ccc(-c2csc3ncnc(N4CCC(CNCCN5CCCC5)CC4)c23)cc1` [Example 206], which IC50 is on record?
Its IC50 is less than 500 nM.

For `CN1CCC(N(C)CC2CCN(c3ncnc4sc(Br)c(-c5ccccc5)c34)CC2)C1` (stereo not drawn) [Example 266], which IC50 is on record?
Its IC50 is less than 500 nM.

Which IC50 does the source give for `CC(C)c1csc2ncnc(N3C4CCC3CC(OCCN3CCCC3)C4)c12` (stereo not drawn) [Example 297] here?
Its IC50 is less than 500 nM.

For `O[C@H]1CCN(CC2CCN(c3ncnc4scc(-c5ccccc5)c34)CC2)C1` [Example 190], which IC50 is on record?
Its IC50 is less than 500 nM.

`CN(C)C(=O)c1ccccc1-c1csc2ncnc(N3C4CCC3CC(COCCN3CCCC3)C4)c12` (stereo not drawn) [Example 364] was tested. Which IC50 did it give?
The IC50 was less than 500 nM.

Which IC50 does the source give for `FC(F)CNCC1CCN(c2ncnc3scc(-c4ccccc4)c23)CC1` [Example 52, 2,2-difluoro-N-[[1-(5-phenylthieno[2,3-d]pyrimidin-4-yl)-4-piperidyl]methyl]ethanamine] here?
The IC50 was 500 to 3000 nM.

For `CN1CCCC1COCC1CCN(c2ncnc3scc(-c4ccccc4)c23)CC1` (stereo not drawn) [Example 7, 4-[4-[(1-methylpyrrolidin-2-yl)methoxymethyl]-1-piperidyl]-5-phenyl-thieno[2,3-d]pyrimidine], which IC50 is on record?
The IC50 was less than 500 nM.

For `c1ccc(-c2csc3ncnc(N4CCC(OCCCN5CCCC5)CC4)c23)cc1` [Example 296], which IC50 is on record?
The IC50 was less than 500 nM.

With `c1ccc(-c2csc3ncnc(N4C5CCC4CC(CNC4CCC4)C5)c23)cc1` (stereo not drawn) [Example 323] as the compound, how does the IC50 read?
The IC50 was less than 500 nM.

How did the IC50 turn out when `Cn1ccnc1CCNCC1CCN(c2ncnc3scc(-c4ccccc4)c23)CC1` [Example 221] was run?
Its IC50 is less than 500 nM.

`COC1CC2CCC(C1)N2c1nc(OC2CC3CC2CN3)nc2scc(-c3ccccc3)c12` (stereo not drawn) [Example 348] was tested. Which IC50 did it give?
The IC50 was less than 500 nM.

For `CC(=O)N(C)C1CCN(c2nc(N3CCC(CN(C)C4CCN(C)C4)CC3)c3c(-c4ccccc4)csc3n2)CC1` (stereo not drawn) [Example 241], which IC50 is on record?
The IC50 was less than 500 nM.

`CN(C)[C@@H]1CCN(CC2CCN(c3ncnc4scc(-c5ccccc5)c34)CC2)C1` [Example 81, (3R)-N,N-dimethyl-1-[[1-(5-phenylthieno[2,3-d]pyrimidin-4-yl)-4-piperidyl]methyl]pyrrolidin-3-amine] was tested. Which IC50 did it give?
Its IC50 is less than 500 nM.

With `CC(C)N(CCNCC1CCN(c2ncnc3scc(-c4ccccc4)c23)CC1)C(C)C` [Example 62, N′,N′-diisopropyl-N-[[1-(5-phenylthieno[2,3-d]pyrimidin-4-yl)-4-piperidyl]methyl]ethane-1,2-diamine] as the compound, how does the IC50 read?
Its IC50 is less than 500 nM.

How did the IC50 turn out when `OCCN(CCO)CC1CCN(c2ncnc3scc(-c4ccccc4)c23)CC1` [Example 186] was run?
Its IC50 is 500 to 3000 nM.

With `COc1ncc(F)cc1-c1csc2ncnc(N3C4CCC3CC(NC3CCC3)C4)c12` (stereo not drawn) [Example 346] as the compound, how does the IC50 read?
The IC50 was 500 to 3000 nM.

`c1ccc(-c2csc3ncnc(N4CCC(CNCCC5CCCO5)CC4)c23)cc1` (stereo not drawn) [Example 102] was tested. Which IC50 did it give?
The IC50 was less than 500 nM.

With `NC(=O)[C@H]1CCCN1CCN1CCN(c2ncc3c(-c4ccccc4)csc3n2)CC1` [Example 147] as the compound, how does the IC50 read?
Its IC50 is less than 500 nM.

Which IC50 does the source give for `COCC1CC2CCC(C1)N2c1nc(N2CCOCC2)c2c(-c3ccccc3)csc2n1` (stereo not drawn) [Example 300] here?
The IC50 was 500 to 3000 nM.

For `OC1CCN(CC2CCN(c3ncnc4scc(C5CCCCC5)c34)CC2)C1` (stereo not drawn) [Example 200], which IC50 is on record?
The IC50 was less than 500 nM.

`OCc1sc2ncnc(N3CCC(COCCN4CCCC4)CC3)c2c1-c1ccccc1` [Example 281, [5-phenyl-4-[4-(2-pyrrolidin-1-ylethoxymethyl)-1-piperidyl]thieno[2,3-d]pyrimidin-6-yl]methanol] was tested. Which IC50 did it give?
The IC50 was less than 500 nM.

Which IC50 does the source give for `CC(C)c1cc2c(N3CCC(COCCC4CCCCN4C)CC3)ncnc2s1` (stereo not drawn) [Example 25, 6-isopropyl-4-[4-[2-(1-methyl-2-piperidyl)ethoxymethyl]-1-piperidyl]thieno[2,3-d]pyrimidine] here?
Its IC50 is less than 500 nM.

`CN1CCCC1CCNCC1CCN(c2ncc3c(-c4ccccc4)csc3n2)CC1` (stereo not drawn) [Example 146] was tested. Which IC50 did it give?
Its IC50 is less than 500 nM.

With `FC(F)(F)c1nc(N2C3CCC2CC(NC2CCC2)C3)c2c(-c3ccccc3)csc2n1` (stereo not drawn) [Example 359] as the compound, how does the IC50 read?
Its IC50 is less than 500 nM.

`c1ccc(-c2csc3ncnc(N4CCC(CNCc5ccccn5)CC4)c23)cc1` [Example 66, N-[[1-(5-phenylthieno[2,3-d]pyrimidin-4-yl)-4-piperidyl]methyl]-1-(2-pyridyl)methanamine] was tested. Which IC50 did it give?
Its IC50 is less than 500 nM.

`c1ccc(-c2csc3nc(N4CCC(COCCN5CC6CC5CO6)CC4)ncc23)cc1` (stereo not drawn) [Example 154] was tested. Which IC50 did it give?
Its IC50 is less than 500 nM.

Which IC50 does the source give for `c1cc2c(N3C4CCC3COC4)nc(N3CCC(COCCN4CCCC4)CC3)nc2s1` [Example 302] here?
The IC50 was less than 500 nM.

For `CCc1nc(N2CCC(N(C)C)CC2)c2c(-c3ccccc3)csc2n1` [Example 170], which IC50 is on record?
Its IC50 is 500 to 3000 nM.

With `CN(C)C1CCCN(CC2CCN(c3nc(NCCN4CCCC4)nc4scc(-c5ccccc5)c34)CC2)C1` (stereo not drawn) [Example 117] as the compound, how does the IC50 read?
Its IC50 is less than 500 nM.

With `COc1ccccc1-c1csc2ncnc(N3C4CCC3CC(COCCN3CCCC3)C4)c12` (stereo not drawn) [Example 362] as the compound, how does the IC50 read?
Its IC50 is less than 500 nM.

With `CN(C)[C@H]1CCCN(CC2CCN(c3ncnc4scc(-c5ccccc5)c34)CC2)C1` [Example 215] as the compound, how does the IC50 read?
Its IC50 is less than 500 nM.

`CN1CCN(c2nc(N3CCC(CNC4CCC4)CC3)c3c(-c4ccccc4)csc3n2)CC1` [Example 116] was tested. Which IC50 did it give?
The IC50 was less than 500 nM.

`Fc1ccc(-c2csc3ncnc(N4CC5C(COCCN6CC[C@@H](F)C6)C5C4)c23)cc1` (stereo partly drawn) [Example 278] was tested. Which IC50 did it give?
Its IC50 is less than 500 nM.

How did the IC50 turn out when `c1ccc(-c2csc3ncnc(N4CCC(CN5CCOC(c6ccccc6)C5)CC4)c23)cc1` (stereo not drawn) [Example 56, 2-phenyl-4-[[1-(5-phenylthieno[2,3-d]pyrimidin-4-yl)-4-piperidyl]methyl]morpholine] was run?
The IC50 was less than 500 nM.

Which IC50 does the source give for `CN1CCC(N(C)CC2CCN(c3nc(N4CCC(C(N)=O)C4)nc4scc(-c5ccccc5)c34)CC2)C1` (stereo not drawn) [Example 120, 1-[4-[4-[[methyl-(1-methylpyrrolidin-3-yl)amino]methyl]-1-piperidyl]-5-phenyl-thieno[2,3-d]pyrimidin-2-yl]pyrrolidine-3-carboxamide] here?
Its IC50 is less than 500 nM.

`CN1CCC(N(C)C(=O)C2CCCN(c3ncnc4scc(-c5ccccc5)c34)C2)C1` (stereo not drawn) [Example 282] was tested. Which IC50 did it give?
Its IC50 is 500 to 3000 nM.

With `N[C@H]1CCCN(CC2CCN(c3ncnc4scc(-c5ccccc5)c34)CC2)C1` [Example 90, (3S)-1-[[1-(5-phenylthieno[2,3-d]pyrimidin-4-yl)-4-piperidyl]methyl]piperidin-3-amine] as the compound, how does the IC50 read?
Its IC50 is less than 500 nM.

With `Fc1ccc(-c2csc3ncnc(N4CC5C(COCCN6CC7CC6CO7)C5C4)c23)cc1` (stereo not drawn) [Example 48, 5-[2-[[3-[5-(4-fluorophenyl)thieno[2,3-d]pyrimidin-4-yl]-3-azabicyclo[3.1.0]hexan-6-yl]methoxy]ethyl]-2-oxa-5-azabicyclo[2.2.1]heptane] as the compound, how does the IC50 read?
Its IC50 is less than 500 nM.

How did the IC50 turn out when `CC(C)NC(=O)c1sc2ncnc(N3CCC(CN(C)C4CCN(C)C4)CC3)c2c1-c1ccccc1` (stereo not drawn) [Example 132] was run?
The IC50 was less than 500 nM.

`c1ccc(-c2csc3ncnc(N4C5CCC4CC(COCCN4CCCC4)C5)c23)cc1` (stereo not drawn) [Example 286] was tested. Which IC50 did it give?
The IC50 was less than 500 nM.

Which IC50 does the source give for `CC(C)c1csc2ncnc(N3C4CCC3CC(COCCN3CCCC3)C4)c12` (stereo not drawn) [Example 287] here?
Its IC50 is less than 500 nM.
